Measurements taken from the supplement of paper PMC10307832.

Assays:
Assay in all cases: relative viability (nuclei count vs DMSO), 5 days (fraction); higher = more cells survive
Selisistat + AZD7762 = compound: C1CC(C2=C(C1)C3=C(N2)C=CC(=C3)Cl)C(=O)N [Selisistat] + NC(=O)Nc1cc(-c2cccc(F)c2)sc1C(=O)N[C@H]1CCCNC1 [AZD7762] (partner 0.2 µM)
In short: (§1)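 Each reported value is a median over duplicate plates. It expresses relative viability: treated-well nuclei count divided by vehicle-well nuclei count. Lung cancer cell lines in 1536-well plates were dosed by pin tool a day after seeding, alone with one drug or with a fixed anchor-drug dose plus five library-drug doses (not always all listed) in √10 steps, and nuclei were counted after 5 days.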

Serdemetan + Crizotinib = compound: c1ccc2c(CCNc3ccc(Nc4ccncc4)cc3)c[nH]c2c1 [Serdemetan] + C[C@@H](Oc1cc(-c2cnn(C3CCNCC3)c2)cnc1N)c1c(Cl)ccc(F)c1Cl [Crizotinib] (partner 1 µM)
In short: as §1

Serdemetan + Decitabine = compound: c1ccc2c(CCNc3ccc(Nc4ccncc4)cc3)c[nH]c2c1 [Serdemetan] + Nc1ncn([C@H]2C[C@H](O)[C@@H](CO)O2)c(=O)n1 [Decitabine] (partner 2 µM)
In short: as §1

Selisistat + Palbociclib = compound: C1CC(C2=C(C1)C3=C(N2)C=CC(=C3)Cl)C(=O)N [Selisistat] + CC(=O)c1c(C)c2cnc(Nc3ccc(N4CCNCC4)cn3)nc2n(C2CCCC2)c1=O [Palbociclib] (partner 0.5 µM)
In short: as §1

| Cell Line | relative viability (Selisistat + AZD7762; first compound 0.4 µM) | relative viability (Selisistat + AZD7762; first compound 1.265 µM) | relative viability (Selisistat + AZD7762; first compound 4 µM) | relative viability (Selisistat + AZD7762; first compound 12.65 µM) | relative viability (Selisistat + AZD7762; first compound 40 µM) | relative viability (Serdemetan + Crizotinib; first compound 0.04 µM) | relative viability (Serdemetan + Crizotinib; first compound 0.1265 µM) | relative viability (Serdemetan + Crizotinib; first compound 0.4 µM) | relative viability (Serdemetan + Crizotinib; first compound 1.265 µM) | relative viability (Serdemetan + Crizotinib; first compound 4 µM) | relative viability (Serdemetan + Decitabine; first compound 0.04 µM) | relative viability (Serdemetan + Decitabine; first compound 0.1265 µM) | relative viability (Serdemetan + Decitabine; first compound 0.4 µM) | relative viability (Serdemetan + Decitabine; first compound 1.265 µM) | relative viability (Serdemetan + Decitabine; first compound 4 µM) | relative viability (Selisistat + Palbociclib; first compound 0.4 µM) | relative viability (Selisistat + Palbociclib; first compound 1.265 µM) | relative viability (Selisistat + Palbociclib; first compound 4 µM) | relative viability (Selisistat + Palbociclib; first compound 12.65 µM) | relative viability (Selisistat + Palbociclib; first compound 40 µM) |
| --- | --- | --- | --- | --- | --- | --- | --- | --- | --- | --- | --- | --- | --- | --- | --- | --- | --- | --- | --- | --- |
| NCI-H596 | 1.14 | 1.01 | 0.887 | 1.05 | 1.06 | 1 | 0.862 | 0.914 | 0.569 | 0.51 | 0.965 | 0.94 | 0.772 | 0.636 | 0.588 |  |  |  |  |  |
| NCI-H2023 |  |  |  |  |  | 0.688 | 0.644 | 0.452 | 0.286 | 0.237 | 0.206 | 0.21 | 0.225 | 0.135 | 0.138 | 0.34 | 0.354 | 0.401 | 0.378 | 0.353 |
| NCI-H1793 | 0.477 | 0.461 |  | 0.53 | 0.73 |  |  |  |  |  | 0.46 | 0.449 | 0.361 | 0.219 | 0.231 | 0.338 | 0.304 |  | 0.34 | 0.328 |
| NCI-H520 |  |  |  |  |  | 0.692 | 0.778 | 0.686 | 0.687 | 0.641 | 0.44 | 0.481 | 0.57 | 0.4 | 0.335 | 0.224 | 0.208 | 0.198 | 0.274 | 0.236 |
| A549 |  |  |  |  |  | 0.807 | 0.757 | 0.764 | 0.578 | 0.306 | 0.263 | 0.245 | 0.261 | 0.291 | 0.198 |  |  |  |  |  |
| NCI-H1563 |  |  |  |  |  | 0.835 | 0.786 | 0.77 | 0.68 | 0.704 |  |  |  |  |  |  |  |  |  |  |
| NCI-H1395 | 0.377 | 0.393 |  | 0.394 | 0.4 |  |  |  |  |  | 0.772 | 0.694 | 0.687 | 0.637 | 0.57 | 0.579 | 0.664 |  | 0.6 | 0.55 |
| NCI-H2009 |  |  |  |  |  | 1 | 0.966 | 0.912 | 0.803 | 0.956 | 0.373 | 0.37 | 0.431 | 0.328 | 0.345 | 0.202 | 0.184 | 0.136 | 0.202 | 0.191 |
| SW 900 | 0.533 | 0.529 | 0.681 | 0.601 | 0.584 |  |  |  |  |  | 0.398 | 0.473 | 0.433 | 0.331 | 0.284 | 0.549 | 0.517 | 0.502 | 0.553 | 0.511 |
| IA-LM |  |  |  |  |  | 0.898 | 0.767 | 0.813 | 0.465 | 0.357 |  |  |  |  |  |  |  |  |  |  |
| SK-LU-1 |  |  |  |  |  | 0.813 | 0.899 | 0.82 | 0.679 | 0.712 | 0.581 | 0.58 | 0.691 | 0.393 | 0.593 | 0.394 | 0.361 | 0.367 | 0.43 | 0.411 |
| NCI-H1703 | 0.116 | 0.114 |  | 0.139 | 0.136 | 0.665 | 0.872 | 0.815 | 0.73 | 0.217 |  |  |  |  |  |  |  |  |  |  |
| NCI-H1648 | 0.736 | 0.64 |  | 0.731 | 0.768 |  |  |  |  |  |  | 0.533 | 0.424 | 0.3 | 0.302 | 0.281 | 0.268 |  | 0.296 | 0.299 |
